Data as given in the NIST ThermoML archive (doi:10.1016/j.tca.2013.08.031).

Experiment: molar heat capacity at constant volume
Settings: Fluid (supercritical or subcritical phases), Vacuum adiabatic calorimetry

CCC(C)O (stereo unspecified) [butan-2-ol]
Settings	molar heat capacity at constant volume [J/K/mol]
538.48 K, Mass density=279.19 kg/m3	275.36
538.48 K, Mass density=284.93 kg/m3	266.32
538.48 K, Mass density=286.65 kg/m3	296.63
538.48 K, Mass density=301.19 kg/m3	256.46
538.66 K, Mass density=117 kg/m3	318.5
538.66 K, Mass density=284.93 kg/m3	265.65
538.66 K, Mass density=286.65 kg/m3	296.86
538.66 K, Mass density=301.19 kg/m3	250.53
538.84 K, Mass density=117 kg/m3	306.2
538.84 K, Mass density=286.65 kg/m3	297.08
539.03 K, Mass density=286.65 kg/m3	296.34
539.57 K, Mass density=286.65 kg/m3	285.07
539.76 K, Mass density=279.19 kg/m3	283.52
539.76 K, Mass density=286.65 kg/m3	288.78
539.94 K, Mass density=184.89 kg/m3	261.35
539.94 K, Mass density=276.45 kg/m3	295.89
539.94 K, Mass density=279.19 kg/m3	284.48
539.94 K, Mass density=286.65 kg/m3	282.33
540.12 K, Mass density=184.89 kg/m3	273.06
540.12 K, Mass density=276.45 kg/m3	293.89
540.12 K, Mass density=279.19 kg/m3	283.74
540.12 K, Mass density=286.65 kg/m3	282.03
540.12 K, Mass density=403.55 kg/m3	223.85
540.3 K, Mass density=184.89 kg/m3	272.25
540.3 K, Mass density=276.45 kg/m3	297.6
540.3 K, Mass density=286.65 kg/m3	280.4
540.3 K, Mass density=403.55 kg/m3	225.33
540.48 K, Mass density=184.89 kg/m3	275.73
540.48 K, Mass density=276.45 kg/m3	293.15
540.48 K, Mass density=403.55 kg/m3	226.81
540.67 K, Mass density=184.89 kg/m3	280.18
540.67 K, Mass density=279.19 kg/m3	274.92
540.67 K, Mass density=403.55 kg/m3	223.85
540.85 K, Mass density=184.89 kg/m3	275.21
540.85 K, Mass density=279.19 kg/m3	281.29
540.85 K, Mass density=403.55 kg/m3	223.11
541.03 K, Mass density=279.19 kg/m3	276.47
541.03 K, Mass density=403.55 kg/m3	220.88
541.21 K, Mass density=279.19 kg/m3	278.4
541.4 K, Mass density=279.19 kg/m3	276.92
542.67 K, Mass density=301.19 kg/m3	240.15
542.85 K, Mass density=301.19 kg/m3	240.9
543.03 K, Mass density=301.19 kg/m3	240.15
547.21 K, Mass density=286.65 kg/m3	273.21
547.39 K, Mass density=286.65 kg/m3	272.69
547.57 K, Mass density=284.93 kg/m3	247.34
547.57 K, Mass density=286.65 kg/m3	276.33
547.75 K, Mass density=284.93 kg/m3	250.31
547.75 K, Mass density=286.65 kg/m3	276.62
547.93 K, Mass density=284.93 kg/m3	248.31
547.93 K, Mass density=286.65 kg/m3	276.1
548.11 K, Mass density=284.93 kg/m3	247.79
548.11 K, Mass density=286.65 kg/m3	276.33
548.11 K, Mass density=347.06 kg/m3	235.71
548.29 K, Mass density=284.93 kg/m3	248.68
548.29 K, Mass density=286.65 kg/m3	278.03
548.29 K, Mass density=347.06 kg/m3	236.45
548.47 K, Mass density=284.93 kg/m3	248.31
548.47 K, Mass density=286.65 kg/m3	278.55
548.47 K, Mass density=347.06 kg/m3	235.71
548.65 K, Mass density=286.65 kg/m3	278.03
548.65 K, Mass density=347.06 kg/m3	234.22
550.28 K, Mass density=284.93 kg/m3	236.74
550.46 K, Mass density=284.93 kg/m3	238.08
550.46 K, Mass density=403.55 kg/m3	218.66
550.64 K, Mass density=403.55 kg/m3	217.92
550.82 K, Mass density=284.93 kg/m3	236.52
550.82 K, Mass density=403.55 kg/m3	220.88
551 K, Mass density=284.93 kg/m3	236.3
551 K, Mass density=403.55 kg/m3	220.88
551.18 K, Mass density=403.55 kg/m3	220.14
551.36 K, Mass density=403.55 kg/m3	220.88
557.3 K, Mass density=286.65 kg/m3	252.16
557.3 K, Mass density=347.06 kg/m3	220.14
557.48 K, Mass density=286.65 kg/m3	253.13
557.48 K, Mass density=347.06 kg/m3	220.88
557.66 K, Mass density=286.65 kg/m3	251.94
557.66 K, Mass density=347.06 kg/m3	217.92
557.84 K, Mass density=286.65 kg/m3	252.16
557.84 K, Mass density=347.06 kg/m3	220.14
558.02 K, Mass density=286.65 kg/m3	253.64
558.2 K, Mass density=284.93 kg/m3	236.45
558.2 K, Mass density=286.65 kg/m3	258.98
558.38 K, Mass density=284.93 kg/m3	243.27
558.38 K, Mass density=286.65 kg/m3	261.43
558.56 K, Mass density=284.93 kg/m3	241.49
558.56 K, Mass density=286.65 kg/m3	257.05
558.74 K, Mass density=284.93 kg/m3	241.71
558.74 K, Mass density=286.65 kg/m3	258.02
558.92 K, Mass density=284.93 kg/m3	246.38
558.92 K, Mass density=286.65 kg/m3	259.28
559.09 K, Mass density=286.65 kg/m3	264.39
559.27 K, Mass density=286.65 kg/m3	254.83
559.45 K, Mass density=286.65 kg/m3	252.68
559.63 K, Mass density=286.65 kg/m3	264.39
560.64 K, Mass density=284.93 kg/m3	246.75
560.89 K, Mass density=286.65 kg/m3	262.17
561.24 K, Mass density=286.65 kg/m3	254.83
561.42 K, Mass density=286.65 kg/m3	257.28
561.6 K, Mass density=286.65 kg/m3	257.79
561.78 K, Mass density=286.65 kg/m3	256.83
561.96 K, Mass density=286.65 kg/m3	257.57
562.14 K, Mass density=286.65 kg/m3	257.05
562.32 K, Mass density=286.65 kg/m3	258.98
562.49 K, Mass density=286.65 kg/m3	254.61
562.67 K, Mass density=286.65 kg/m3	256.61
